From ChEMBL document CHEMBL4052601, “Glycybridins A-K, Bioactive Phenolic Compounds from Glycyrrhiza glabra” (J Nat Prod, 2017)

Assays:
[1] = target: T1, Tyrosine-protein phosphatase non-receptor type 1 (Homo sapiens) (UniProt P18031); assay: (§1) Inhibition of recombinant human PTP1B using pNPP as substrate after 30 mins
T1 sequence (whole entry): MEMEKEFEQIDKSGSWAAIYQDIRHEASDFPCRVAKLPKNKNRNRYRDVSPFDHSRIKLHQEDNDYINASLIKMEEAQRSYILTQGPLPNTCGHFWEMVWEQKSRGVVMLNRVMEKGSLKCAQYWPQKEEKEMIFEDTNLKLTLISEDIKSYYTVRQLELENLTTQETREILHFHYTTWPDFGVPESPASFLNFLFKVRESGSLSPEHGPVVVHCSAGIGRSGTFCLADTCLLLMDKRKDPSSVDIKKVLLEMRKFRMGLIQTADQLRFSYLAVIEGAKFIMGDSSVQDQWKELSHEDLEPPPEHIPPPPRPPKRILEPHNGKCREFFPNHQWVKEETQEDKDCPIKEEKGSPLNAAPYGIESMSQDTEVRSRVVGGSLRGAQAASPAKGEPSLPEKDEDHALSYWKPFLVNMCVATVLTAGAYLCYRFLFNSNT

[2] = target: T2, Tyrosine-protein phosphatase non-receptor type 1 (Homo sapiens, UniProt P18031); assay: as §1
T2 sequence (P18031 whole entry): T1 sequence (whole entry)

RAW264.7 = assay: Antiinflammatory activity against mouse RAW264.7 cells assessed as inhibition of LPS-induced nitric oxide production at 10 uM after 24 hrs by Griess assay relative to control; assay type: functional; conditions: RAW264.7, 24 h
Homo sapiens = assay: Inhibition of LPS-induced NF-kappaB (unknown origin) transactivation expressed in human SW480 cells at 10 uM administered 1 hr after LPS stimulation measured after 6 hrs by luciferase reporter gene assay relative to control; assay type: cell-based
HepG2 = assay: Antiproliferative activity against human HepG2 cells at 10 uM after 24 hrs by MTS assay relative to control; assay type: functional; conditions: HepG2, 24 h
A549 = assay: Antiproliferative activity against human A549 cells at 10 uM after 24 hrs by MTS assay relative to control; assay type: functional; conditions: A549, 24 h
MCF7 = assay: Antiproliferative activity against human MCF7 cells at 10 uM after 24 hrs by MTS assay relative to control; assay type: functional; conditions: MCF7, 24 h
SW480 = assay: Antiproliferative activity against human SW480 cells at 10 uM after 24 hrs by MTS assay relative to control; assay type: functional; conditions: SW480, 24 h
[3] = target: T3, Tyrosinase (Homo sapiens) (UniProt P14679); conditions: at 10 µM;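 also: tyrosinase of unspecified origin acting on L-tyrosine, compound preincubated with enzyme for 15 min before adding substrate, inhibition expressed versus control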
T3 sequence (whole entry): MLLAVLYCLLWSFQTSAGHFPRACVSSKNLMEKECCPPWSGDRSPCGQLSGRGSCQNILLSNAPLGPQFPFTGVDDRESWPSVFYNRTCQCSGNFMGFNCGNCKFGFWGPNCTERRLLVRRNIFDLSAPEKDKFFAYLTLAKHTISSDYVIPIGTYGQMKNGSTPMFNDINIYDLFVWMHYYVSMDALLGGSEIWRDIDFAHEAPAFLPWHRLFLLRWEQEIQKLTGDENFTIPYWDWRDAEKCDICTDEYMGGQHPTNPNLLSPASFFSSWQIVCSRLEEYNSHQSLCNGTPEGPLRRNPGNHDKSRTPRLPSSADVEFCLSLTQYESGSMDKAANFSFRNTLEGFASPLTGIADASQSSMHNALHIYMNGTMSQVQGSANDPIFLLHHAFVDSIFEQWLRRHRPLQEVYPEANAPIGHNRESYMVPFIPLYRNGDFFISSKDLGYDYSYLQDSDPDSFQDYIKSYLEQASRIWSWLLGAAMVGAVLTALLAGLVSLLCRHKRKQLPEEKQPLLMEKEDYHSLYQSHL
Description: Inhibition of tyrosinase (unknown origin) using L-tyrosine as substrate at 10 uM preincubated for 15 mins followed by substrate addition relative to control

[4] = target: T1, Tyrosine-protein phosphatase non-receptor type 1 (Homo sapiens); conditions: at 10 µM
Description: Inhibition of recombinant human PTP1B using pNPP as substrate at 10 uM after 30 mins relative to control

Row | SMILES | inhibition [1] | IC50 [2] [µM] | inhibition [3] [%] | inhibition [4] [%] | inhibition at 10 µM (RAW264.7) [%] | inhibition (Homo sapiens) [%] | inhibition at 10 µM (HepG2) [%] | inhibition at 10 µM (A549) [%] | inhibition at 10 µM (MCF7) [%] | inhibition at 10 µM (SW480) [%]
1 | CC(C)=CCc1c(O)ccc([C@@H]2COc3c(ccc4c3C=CC(C)(C)O4)C2)c1O [HISPAGLABRIDIN A] | Dose-dependent effect | 5 to 7.9 | 0 | 80.3 | 4 | 13.3 | 26.7 | 47.6 | 21.9 | 34.9
2 | CC1(C)C=Cc2c(ccc3c2O[C@H]2c4ccc(O)cc4OC[C@@H]32)O1 [PHASEOLIN] |  |  | 2.4 | 9.5 | 2.6 | 2.1 | 0 | 34.7 | 6.8 | 0
3 | CC(C)=CCc1cc([C@H]2Oc3c(ccc(O)c3CC=C(C)C)C(=O)C2O)ccc1O (stereo partly drawn) |  |  | 0.8 | 43.9 | 0 | 37 | 39 | 24.8 | 33.2 | 25.2
4 | CC1(C)C=Cc2cc(C[C@@H](O)C(=O)c3ccc(O)cc3O)ccc2O1 |  |  | 1 | 0.2 | 9.3 | 0 | 12.3 | 6.4 | 19.3 | 1.9
5 | CC(C)=CCc1cc([C@@H]2CC(=O)c3ccc(O)cc3O2)ccc1O [ABYSSINONE II] |  |  | 7.8 | 4.2 | 10.5 | 56.6 | 44.2 | 0 | 42.3 | 0
6 | CC1(C)C=Cc2cc3c(cc2O1)OCC(c1ccc(O)c2c1OC(C)(C)C=C2)=C3 |  |  | 1.3 | 95.3 | 2.6 | 0 | 0 | 0.7 | 26.6 | 24.3
7 | CC1(C)C=Cc2c(cc(O)c3c2OCC(c2ccc(O)cc2O)C3=O)O1 (stereo not drawn) |  |  | 35.6 | 58.5 | 1.9 | 0.1 | 37.6 | 4.3 | 12.7 | 29.6
8 | CC(C)=CCc1cc([C@H]2Oc3c(ccc4c3C=CC(C)(C)O4)C(=O)[C@@H]2O)ccc1O |  |  | 8.1 | 10.6 | 0.3 | 40.3 | 42.9 | 21.2 | 13.5 | 9.2
9 | CC(C)=CCc1c(O)ccc(C(=O)/C=C/c2cc(O)c3c(c2)C=CC(C)(C)O3)c1O |  |  | 0 | 47.1 | 2 | 23.1 | 21.7 | 10.9 | 72 | 34.7
10 | CC1(C)C=Cc2c(ccc3c(=O)c(Oc4ccc(O)cc4O)coc23)O1 |  |  | 2.4 | 12.8 | 6.3 | 18.1 | 29.9 | 0 | 2.6 | 7.1
11 | CC1(C)C=Cc2c(ccc(-c3oc4cc(O)ccc4c3C=O)c2O)O1 |  |  | 10.5 | 9.3 | 36.5 | 36.6 | 21 | 7.9 | 35.8 | 5.3
12 | CC(C)=CCc1c(O)cc(O)c2c(=O)c(-c3ccc(O)cc3O)coc12 |  |  | 49.6 | 18.2 | 10.3 | 0 | 0 | 4.2 | 7.4 | 4.2
13 | COc1ccc(-c2coc3cc(O)ccc3c2=O)cc1 [FORMONONETIN] |  |  | 4.3 | 9.9 | 0 | 0 | 8.2 | 15.4 | 51.8 | 0
14 | COc1ccc([C@@H]2COc3c(ccc4c3C=CC(C)(C)O4)C2)c(O)c1 |  |  | 2.2 | 14.6 | 8.5 | 4.1 | 54.2 | 35.9 | 5.3 | 16.1
15 | CC(C)=CCc1c(O)ccc(C(=O)/C=C/c2ccc(O)cc2)c1O [ISOBAVACHALCONE] |  |  | 18.4 | 16 | 7.5 | 13.2 | 27.3 | 3.5 | 15.6 | 46.7

Further lines, with some results ahead:

Row | inhibition [1] | IC50 [2] [µM] | inhibition [3] [%] | inhibition [4] [%] | SMILES | inhibition at 10 µM (RAW264.7) [%] | inhibition (Homo sapiens) [%] | inhibition at 10 µM (HepG2) [%] | inhibition at 10 µM (A549) [%] | inhibition at 10 µM (MCF7) [%] | inhibition at 10 µM (SW480) [%]
16 |  |  | 13.6 | 10.1 | COc1ccc(C2(O)COc3c(ccc(O)c3CC=C(C)C)C2=O)c(O)c1 (stereo not drawn) | 5.5 | 13.7 | 1.6 | 39.1 | 2.8 | 4.2
17 |  |  | 18.4 | 22.4 | COc1ccc([C@@H]2COc3c(ccc4c3C=CC(C)(C)O4)C2)c(O)c1O | 17.3 | 22.1 | 49.6 | 30.2 | 23.3 | 12.9
18 |  |  | 12.5 | 1.3 | CC1(C)C=Cc2c(O)ccc(-c3cc4ccc(O)cc4o3)c2O1 | 48.9 | 32.2 | 0 | 6.5 | 9.7 | 6.4
19 |  |  | 7.9 | 15.7 | CC(C)=CCc1c(O)ccc([C@@H]2COc3c(ccc(O)c3CC=C(C)C)C2)c1O [KANZONOL X] | 15.7 | 32.9 | 14.9 | 81.6 | 95.9 | 74.4
20 | Dose-dependent effect | 5 to 7.9 | 0 | 75.8 | CC(C)=CCc1cc(/C=C/C(=O)c2ccc(O)c(CC=C(C)C)c2O)ccc1O [KANZONOL C] | 12.8 | 0 | 31.7 | 58 | 55.8 | 35.6
21 |  |  | 1 | 6 | CC1(C)C=Cc2c(ccc3c(=O)c(-c4ccc(O)cc4O)coc23)O1 | 12.1 | 1.5 | 30 | 4.9 | 42.1 | 0
22 | Dose-dependent effect | 5 to 7.9 | 0 | 84.5 | CC(C)=CCc1cc(/C=C/C(=O)c2ccc3c(c2O)C=CC(C)(C)O3)ccc1O | 7.2 | 3.4 | 10.6 | 2 | 15.6 | 4.9
23 |  |  | 2.9 | 10.1 | CC1(C)C=Cc2cc([C@@H]3CC(=O)c4ccc(O)cc4O3)ccc2O1 [ABYSSINONE I] | 0 | 23.1 | 33.9 | 0 | 13.8 | 17.4
24 |  |  | 11 | 21 | CC1(C)C=Cc2c(cc(O)c3c(=O)c(-c4ccc(O)cc4)coc23)O1 [DERRONE] | 0 | 30.8 | 23.7 | 0 | 13.6 | 0
